# Measured values as given in patent US11786492B2, “Therapeutic agent for phosphodiesterase inhibition and its related disorders” (Novalead Pharma Inc, priority 2017, dated 2023).
# pIC50: −log10 of the molar value.
# What was measured:
# HaCaT cells = assay: Cell viability of HaCaT cells, Alamar blue; format: cell-based, human
# Procedure: (§1) HaCaT cells were maintained in T-75 cm2 flask in Dulbecco's modified Eagle medium supplemented with FBS (10%), L-glutamine (2 mM), penicillin (100 ug/ml), streptomycin (100 ug/ml) at 37° C. in 5% CO2 incubator. Cell growth was maintained to 70-80% confluence for seeding and vehicle used was 1% DMSO. The cell viability was checked at various time points using Alamar blue and fluorescence readings were taken at excitation of 544 nm and emission of 590 nm.
# Human IL-10 = assay: IL-10 release from stimulated PBMCs, ELISA; format: cell-based; details: LPS 100 ng/mL, 18 hrs
# Procedure: (§2) Fresh human blood from healthy volunteer was collected in anticoagulant (5 mM) ethylene diamine tetra acetic acid (EDTA) containing tubes. The growth medium used was RPMI-1640 medium (with 3% FBS) and incubated at 37° C. for 60 mins in a 5% CO2 incubator with vehicle used as 1% DMSO. The cell viability was checked at various time points using Alamar blue and fluorescence readings were taken at excitation of 544 nm and emission of 590 nm.
# (§3) PBMCs were stimulated with different stimulators as follows: • a. Cells were exposed to stimulator LPS at 100 ng/mL for 18 hrs to stimulate TNF-α, IL-6, IFN-γ, IL10, IL-1β • b. Cells were exposed to stimulator IFN-γ+LPS at 100 ng/mL+1 μg/mL for 18 hrs to stimulate IL-12 • c. Cells were exposed to stimulator PMA+Ionomycin at 50 ng/mL+1 μg/mL for 18 hrs to stimulate IL-23, IL-22, IL-17A, IL-17F
# (§4) After 18 hrs supernatants were collected and centrifuged to remove any cell debris and aliquots were used for ELISA.
# Human IL-12 = assay: IL-12 release from stimulated PBMCs, ELISA; format: cell-based; details: IFN-γ+LPS, 18 hrs
# Procedure: as §2, §3, §4
# Human IL-17F = assay: IL-17F release from stimulated PBMCs, ELISA; format: cell-based; details: PMA+Ionomycin, 18 hrs
# Procedure: as §2, §3, §4
# TNF-α = TNF-α release from stimulated HaCaT cells, ELISA; format: cell-based, human; details: IFN-γ 50 ng/mL, 48 hrs
# Procedure: as §1
# (§5) HaCaT cells were stimulated with different stimulators as follows: • a. Cells were exposed to stimulator LPS at 1 μg/mL for 48 hrs to stimulate IL-1β • b. Cells were exposed to stimulator IFN-γ at 50 ng/mL for 48 hrs to stimulate TNF-α, IL-6
# (§6) After 48 hrs supernatants were collected and centrifuged to remove any cell debris and aliquots were used for ELISA.
# IL-6 = IL-6 release from stimulated HaCaT cells, ELISA; format: cell-based, human; details: IFN-γ 50 ng/mL, 48 hrs
# Procedure: as §1, §5, §6
# PDE2A = PDE2A (Homo sapiens, UniProt O00408); assay: Fluorescence polarization assay PDE2A; format: biochemical; details: substrate cGMP
# PDE2A, sequence (O00408 whole entry, species assumed): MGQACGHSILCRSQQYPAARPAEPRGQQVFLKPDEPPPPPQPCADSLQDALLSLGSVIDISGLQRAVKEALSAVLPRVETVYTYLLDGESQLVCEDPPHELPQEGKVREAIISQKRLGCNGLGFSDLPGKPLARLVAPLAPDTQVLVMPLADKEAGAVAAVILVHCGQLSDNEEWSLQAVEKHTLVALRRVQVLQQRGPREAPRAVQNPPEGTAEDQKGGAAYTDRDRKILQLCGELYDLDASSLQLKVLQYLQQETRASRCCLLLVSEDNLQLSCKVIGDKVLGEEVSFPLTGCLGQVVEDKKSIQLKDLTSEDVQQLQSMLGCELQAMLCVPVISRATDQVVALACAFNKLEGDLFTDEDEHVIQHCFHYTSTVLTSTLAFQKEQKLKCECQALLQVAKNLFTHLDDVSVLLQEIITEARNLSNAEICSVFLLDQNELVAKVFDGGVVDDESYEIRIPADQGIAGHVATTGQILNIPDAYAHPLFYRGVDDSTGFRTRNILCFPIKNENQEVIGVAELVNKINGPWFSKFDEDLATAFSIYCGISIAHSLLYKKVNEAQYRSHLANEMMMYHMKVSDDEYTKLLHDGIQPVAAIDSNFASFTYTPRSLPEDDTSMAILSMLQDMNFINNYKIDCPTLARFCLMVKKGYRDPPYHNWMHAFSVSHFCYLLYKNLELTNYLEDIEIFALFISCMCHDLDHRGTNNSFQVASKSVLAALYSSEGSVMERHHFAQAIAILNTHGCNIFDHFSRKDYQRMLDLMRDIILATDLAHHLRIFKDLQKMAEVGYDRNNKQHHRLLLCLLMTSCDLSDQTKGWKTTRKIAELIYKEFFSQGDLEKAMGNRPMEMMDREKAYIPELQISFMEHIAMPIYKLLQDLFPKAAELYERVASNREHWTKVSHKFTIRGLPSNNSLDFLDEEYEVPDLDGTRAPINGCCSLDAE
# Procedure: (§7) An experiment to check inhibition of various subtypes of the target Phosphodiesterase (PDE) enzyme in in-vitro assay was performed. […] PDE1A, PDE2A, PDE4A, PDE4B, PDE4C, PDE4D, PDE5A, PDE7A, PDE9A, PDE10A.
# PDE4B = PDE4B (Homo sapiens, UniProt Q07343); assay: Fluorescence polarization assay PDE4B; format: biochemical; details: substrate cAMP
# PDE4B, sequence (Q07343 whole entry, species assumed): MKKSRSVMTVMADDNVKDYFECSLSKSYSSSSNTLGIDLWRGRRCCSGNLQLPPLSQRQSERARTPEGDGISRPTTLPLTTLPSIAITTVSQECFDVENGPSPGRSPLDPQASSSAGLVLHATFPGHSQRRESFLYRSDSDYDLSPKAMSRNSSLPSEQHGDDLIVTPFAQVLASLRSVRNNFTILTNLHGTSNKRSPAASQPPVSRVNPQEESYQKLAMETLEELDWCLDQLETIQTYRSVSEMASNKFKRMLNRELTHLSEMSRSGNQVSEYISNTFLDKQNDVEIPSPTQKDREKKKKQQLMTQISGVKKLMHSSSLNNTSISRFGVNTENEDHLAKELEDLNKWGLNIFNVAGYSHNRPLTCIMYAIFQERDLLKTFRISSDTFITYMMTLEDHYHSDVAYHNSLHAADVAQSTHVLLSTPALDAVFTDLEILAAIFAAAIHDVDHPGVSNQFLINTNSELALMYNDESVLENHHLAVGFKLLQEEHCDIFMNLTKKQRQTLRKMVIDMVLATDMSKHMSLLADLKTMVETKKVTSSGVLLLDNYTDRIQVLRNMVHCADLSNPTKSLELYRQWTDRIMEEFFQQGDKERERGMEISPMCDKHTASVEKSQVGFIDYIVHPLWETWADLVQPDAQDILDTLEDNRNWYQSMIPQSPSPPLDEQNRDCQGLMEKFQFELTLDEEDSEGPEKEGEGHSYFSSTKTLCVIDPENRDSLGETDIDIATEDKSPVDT
# Procedure: as §7
# Human IFN-γ = assay: IFN-γ release from stimulated PBMCs, ELISA; format: cell-based; details: LPS 100 ng/mL, 18 hrs
# Procedure: as §2, §3, §4
# Human IL-17A = assay: IL-17A release from stimulated PBMCs, ELISA; format: cell-based; details: PMA+Ionomycin, 18 hrs
# Procedure: as §2, §3, §4
# Human TNF-α = assay: TNF-α release from stimulated PBMCs, ELISA; format: cell-based; details: LPS 100 ng/mL, 18 hrs
# Procedure: as §2, §3, §4
# PDE1A = PDE1A (Homo sapiens, UniProt P54750); assay: Fluorescence polarization assay PDE1A; format: biochemical; details: substrate cGMP, Ca-CaM
# PDE1A, sequence (P54750 whole entry, species assumed): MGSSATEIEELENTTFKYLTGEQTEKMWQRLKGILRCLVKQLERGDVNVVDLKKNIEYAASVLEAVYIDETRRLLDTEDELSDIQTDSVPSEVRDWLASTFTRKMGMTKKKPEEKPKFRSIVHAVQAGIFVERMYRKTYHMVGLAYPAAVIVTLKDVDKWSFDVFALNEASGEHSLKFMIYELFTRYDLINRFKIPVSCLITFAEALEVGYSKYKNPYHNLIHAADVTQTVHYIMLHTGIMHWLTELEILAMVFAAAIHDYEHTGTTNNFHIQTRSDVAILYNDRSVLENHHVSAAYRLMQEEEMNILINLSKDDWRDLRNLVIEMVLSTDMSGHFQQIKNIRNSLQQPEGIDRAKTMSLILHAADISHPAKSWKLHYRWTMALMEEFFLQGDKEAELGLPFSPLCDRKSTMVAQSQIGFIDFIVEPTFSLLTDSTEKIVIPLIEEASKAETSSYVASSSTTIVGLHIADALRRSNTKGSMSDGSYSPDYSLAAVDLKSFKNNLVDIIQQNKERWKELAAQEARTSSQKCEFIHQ
# Procedure: as §7
# human PBMCs = assay: Cell viability of human PBMCs, Alamar blue; format: cell-based
# Procedure: as §2
# Human IL-6 = assay: IL-6 release from stimulated PBMCs, ELISA; format: cell-based; details: LPS 100 ng/mL, 18 hrs
# Procedure: as §2, §3, §4
# Human IL-22 = assay: IL-22 release from stimulated PBMCs, ELISA; format: cell-based; details: PMA+Ionomycin, 18 hrs
# Procedure: as §2, §3, §4
# Human IL-1β = assay: IL-1β release from stimulated PBMCs, ELISA; format: cell-based; details: LPS 100 ng/mL, 18 hrs
# Procedure: as §2, §3, §4
smiles,measurement,setting,value
CC(=O)Oc1ccccc1C(=O)Nc1ncc([N+](=O)[O-])s1 [Nitazoxanide],% Viability (±S.E.M.),"HaCaT cells; 0.1 μM, 24 hrs",89 ± 1%
same,% Viability (±S.E.M.),"HaCaT cells; 0.1 μM, 48 hrs",99 ± 9%
same,% Viability (±S.E.M.),"HaCaT cells; 0.1 μM, 72 hrs",103 ± 3%
same,% Viability (±S.E.M.),"HaCaT cells; 1 μM, 24 hrs",81 ± 3%
same,% Viability (±S.E.M.),"HaCaT cells; 1 μM, 48 hrs",86 ± 8%
same,% Viability (±S.E.M.),"HaCaT cells; 1 μM, 72 hrs",91 ± 2%
same,% Viability (±S.E.M.),"HaCaT cells; 10 μM, 24 hrs",41 ± 1%
same,% Viability (±S.E.M.),"HaCaT cells; 10 μM, 48 hrs",40 ± 2%
same,% Viability (±S.E.M.),"HaCaT cells; 10 μM, 72 hrs",46 ± 3%
same,% Viability (±S.E.M.),"HaCaT cells; 50 μM, 24 hrs",18 ± 1%
same,% Viability (±S.E.M.),"HaCaT cells; 50 μM, 48 hrs",15 ± 2%
same,% Viability (±S.E.M.),"HaCaT cells; 50 μM, 72 hrs",18 ± 1%
same,% Viability (±S.E.M.),"HaCaT cells; 100 μM, 24 hrs",17 ± 1%
same,% Viability (±S.E.M.),"HaCaT cells; 100 μM, 48 hrs",13 ± 1%
same,% Viability (±S.E.M.),"HaCaT cells; 100 μM, 72 hrs",17 ± 1%
same,Concentration which exhibited cell viability of 70%,"HaCaT cells; HaCaT cells, maximum concentration for stimulation study",1 µM
same,Human IL-10 concentration,Human IL-10; 1 μM,1799 pg/mL
same,Human IL-10 concentration,Human IL-10; 10 μM,512 pg/mL
same,Human IL-10 concentration,Human IL-10; 25 μM,76 pg/mL
same,Human IL-10 concentration,Human IL-10; 50 μM,42 pg/mL
same,Human IL-12 concentration,Human IL-12; 1 μM,3892 pg/mL
same,Human IL-12 concentration,Human IL-12; 10 μM,1500 pg/mL
same,Human IL-12 concentration,Human IL-12; 25 μM,406 pg/mL
same,Human IL-12 concentration,Human IL-12; 50 μM,101 pg/mL
same,Human IL-17F concentration,Human IL-17F; 1 μM,166 pg/mL
same,Human IL-17F concentration,Human IL-17F; 10 μM,0 pg/mL
same,Human IL-17F concentration,Human IL-17F; 25 μM,0 pg/mL
same,Human IL-17F concentration,Human IL-17F; 50 μM,0 pg/mL
same,TNF-α Conc.,TNF-α; 0.1 μM,3 ± 0.2 pg/mL
same,TNF-α Conc.,TNF-α; 0.5 μM,2.5 ± 0.5 pg/mL
same,TNF-α Conc.,TNF-α; 1 μM,2.3 ± 0.4 pg/mL
same,IL-6 Conc.,IL-6; 0.1 μM,83 ± 1 pg/mL
same,IL-6 Conc.,IL-6; 0.5 μM,79 ± 4 pg/mL
same,IL-6 Conc.,IL-6; 1 μM,70 ± 4 pg/mL
same,pIC50,PDE2A,4.17
same,pIC50,PDE4B,< 3.30
same,Human IFN-γ concentration,Human IFN-γ; 1 μM,217 pg/mL
same,Human IFN-γ concentration,Human IFN-γ; 25 μM,152 pg/mL
same,Human IFN-γ concentration,Human IFN-γ; 50 μM,191 pg/mL
same,Human IL-17A concentration,Human IL-17A; 1 μM,39 pg/mL
same,Human IL-17A concentration,Human IL-17A; 10 μM,0 pg/mL
same,Human IL-17A concentration,Human IL-17A; 25 μM,0 pg/mL
same,Human IL-17A concentration,Human IL-17A; 50 μM,0 pg/mL
same,Human TNF-α concentration,Human TNF-α; 1 μM,5708 pg/mL
same,Human TNF-α concentration,Human TNF-α; 10 μM,3472 pg/mL
same,Human TNF-α concentration,Human TNF-α; 25 μM,3679 pg/mL
same,Human TNF-α concentration,Human TNF-α; 50 μM,2896 pg/mL
same,pIC50,PDE1A,3.86
same,% Viability (±S.E.M.),"human PBMCs; 0.01 μM, 24 hrs",97 ± 1%
same,% Viability (±S.E.M.),"human PBMCs; 0.01 μM, 48 hrs",106 ± 8%
same,% Viability (±S.E.M.),"human PBMCs; 0.01 μM, 72 hrs",113 ± 10%
same,% Viability (±S.E.M.),"human PBMCs; 1 μM, 24 hrs",91 ± 2%
same,% Viability (±S.E.M.),"human PBMCs; 1 μM, 48 hrs",105 ± 7%
same,% Viability (±S.E.M.),"human PBMCs; 1 μM, 72 hrs",106 ± 2%
same,% Viability (±S.E.M.),"human PBMCs; 100 μM, 24 hrs",76 ± 4%
same,% Viability (±S.E.M.),"human PBMCs; 100 μM, 48 hrs",42 ± 4%
same,% Viability (±S.E.M.),"human PBMCs; 100 μM, 72 hrs",11 ± 3%
same,Concentration which exhibited cell viability of 70%,"human PBMCs; PBMCs, maximum concentration for stimulation study",50 µM
same,Human IL-6 concentration,Human IL-6; 1 μM,5520 pg/mL
same,Human IL-6 concentration,Human IL-6; 10 μM,5342 pg/mL
same,Human IL-6 concentration,Human IL-6; 25 μM,3567 pg/mL
same,Human IL-6 concentration,Human IL-6; 50 μM,2531 pg/mL
same,Human IL-22 concentration,Human IL-22; 1 μM,5612 pg/mL
same,Human IL-22 concentration,Human IL-22; 10 μM,1093 pg/mL
same,Human IL-22 concentration,Human IL-22; 25 μM,228 pg/mL
same,Human IL-22 concentration,Human IL-22; 50 μM,0 pg/mL
same,Human IL-1β concentration,Human IL-1β; 1 μM,4470 pg/mL
same,Human IL-1β concentration,Human IL-1β; 10 μM,3971 pg/mL
same,Human IL-1β concentration,Human IL-1β; 25 μM,3203 pg/mL
same,Human IL-1β concentration,Human IL-1β; 50 μM,2506 pg/mL
